Tests used:
[1] = system: TNF-α production; assay: Inhibitory activity against cytokine (TNF-α) production in LPS-stimulated RAW264.7 cells; format: cell-based, mouse; details: 1 μM test compound, LPS 10 ng/mL; for inhibition at 1 µM: Mus musculus, RAW264.7, 15 h
In short: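 Mouse RAW264.7 macrophages (5,000 cells/well) stimulated with 10 ng/mL LPS (final) and treated with test compound at 1 μM final for 15 h at 37 °C. Supernatant mouse TNF-α measured by ELISA; % inhibition = 100−(A−B)/(C−B)×100, using unstimulated and LPS-only controls.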

[2] = system: Rat white adipocytes; assay: Stimulation of differentiation of the adipocytes (Oil Red O); format: cell-based; details: 100 nM test compound, 5 days, Oil Red O ABS550, control = 100%, blank = 0%, Table 7; for activity at 0.1 µM: Rattus norvegicus, Adipocyte, 120 h, read-out: Rate of Differentiation (%)
In short: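 Rat white adipocytes, 5,000 cells/well, cultured 5 days in differentiation-inducing medium with test compound at final 100 nM (0.1% DMSO). Cells fixed, stained with Oil Red O, dye extracted in DMSO and read at 550 nm; differentiation rate expressed relative to vehicle control (100%) and cell-free blank (0%).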

| Compound | inhibition at 1 µM [1] | activity at 0.1 µM [2] | Inhibitory Activity (%) against TNF-α production ([1]; 15 hr) | Rate of Differentiation (%) [2] |
| --- | --- | --- | --- | --- |
| Cc1csc(NC(=O)c2cc([N+](=O)[O-])ccc2Cl)n1 [Example 3, N-(4-Methylthiazol-2-yl)-(2-chloro-5-nitrophenyl)carboxamide] | 17% | 126% | – | – |
| O=C(Nc1nc2ccc(Cc3ccc(F)cc3)cc2s1)c1cc([N+](=O)[O-])ccc1Cl [Example 90, N-[6-(4-Fluorobenzyl)benzothiazol-2-yl]-(2-chloro-5-nitrophenyl)carboxamide] | 19.4% | 131% | – | – |
| O=C(Nc1ccc(-c2ccc(O)cc2)cc1)c1cc([N+](=O)[O-])ccc1Cl [Example 135, N-[4-(4-Hydroxyphenyl)phenyl]-2-(chloro-5-nitrophenyl)carboxamide] | – | – | 16.6% | 128.0% |

Source: patent US20030134859A1 (SANKYO COMPANY, LIMITED, priority 2000, published 2003)
